The values below come from patent publication US6399629B1, “Efflux pump inhibitors” (priority 1998, dated 2002).

The experiment concerns Pseudomonas aeruginosa PAM1001. The experiment can be described thus: checkerboard assay (broth microdilution): levofloxacin MIC in presence of efflux pump inhibitor. Type of experiment: cell-based. Here is the method: For compounds labeled with the prefix ‘M’, potentiation effect is observed by the reduction of the minimum inhibitory concentration of levofloxacin in the presence of the experimental efflux pump inhibitor. The activity of efflux pump inhibitors (EPI) in combination with fluoroquinolones, such as levofloxacin, is assessed by the checkerboard assay (Antimicrobial Combinations. In Antibiotics in Laboratory Medicine, Ed. Victor Lorian, M.D., Fourth edition, 1996, pp 333-338) using broth microdilution method performed as recommended by the National Committee for Clinical Laboratory Standards (1997). Methods for Dilution of Antimicrobial Susceptibility Tests for Bacteria That Grow Aerobically—Fourth Edition; Approved Standard. NCCLS Document M7-A4, Vol 17 No.2). The test organism used is Pseudomonas aeruginosa PAM1001. […] The compounds tabulated below are representative of the described invention.
In these assays, multiple dilutions of two drugs, namely the EPI and levofloxacin, are being tested, alone and in combination, at concentrations equal to, above and below their respective minimal inhibitory concentrations (MICs). In the case of EPI, most of these compounds are devoid of intrinsic antimicrobial activity and are tested up to the maximum concentration of 40 μg/mL. The MIC of levofloxacin against P. aeruginosa PAM1001 is 4 μg/mL.
The EPI tested are readily soluble in water and stock solutions are prepared at a final concentration of 2 mg/mL. Stock solutions are further diluted, according to the needs of a particular assay, in Mueller Hinton Broth (MHB). Stock solution can be stored at −80° C. Quinolones are solubilized according to the instructions of the manufacturers, at a concentration of 1 mg/mL. They are then further diluted in MHB. Stock solution can be stored at −80° C.
The checkerboard assay is performed in microtiter plates. Levofloxacin is diluted in the x axis, each column containing a single concentration of levofloxacin. The EPI is diluted in the y axis, each row containing an equal concentration of EPI. The result of these manipulations is that each well of the microtiter plate contains a unique combination of concentrations of the two agents. Each EPI are tested independently.
The assay is performed in MHB with a final bacterial inoculum of 5×10^5 CFU/mL (from an early-log phase culture). Microtiter plates are incubated during 20 h at 35° C. and are read using a microtiter plate reader (Molecular Devices) at 650 nm as well as visual observation using a microtiterplate reading mirror.

Regarding `CCc1ccc2ncc(NC(=O)[C@@H](CCc3ccccc3)NC(=O)[C@H]3C[C@H](CN)CN3)cc2c1` [Compound M14, (2R,4R)-4-(Aminomethyl)-N-[(1R)-3-phenyl-1-(6-ethyl-3-quiolylcarbamoyl)propyl]-2-pyrrolidinecarboxamide], the “Levofloxacin MIC Against P. aerugiuosa PAM1001 in Presence of Efflux Pump Inhibitor (EPI), Minimum Inhibitory Concentration” value runs as follows: (EPI Conc. 0 μg/mL) 4 µg/mL; (EPI Conc. 0.625 μg/mL) 4 µg/mL; (EPI Conc. 1.25 μg/mL) 4 µg/mL; (EPI Conc. 2.5 μg/mL) 2 µg/mL; (EPI Conc. 5 μg/ mL) 0.03 µg/mL; (EPI Conc. 10 μg/mL) 0.03 µg/mL. Also, the “Levofloxacin MIC Against P. aerugiuosa PAM1001 in Presence of Efflux Pump Inhibitor (EPI), Minimum Inhibitory Concentration” value (EPI Conc. 20 μg/mL) stood at 0.03 µg/mL.

`NCC(=O)N[C@H]1CN[C@H](C(=O)N[C@H](CCc2ccccc2)COc2ccc3ccccc3n2)C1` [Compound M54, (2S,rR)-4-(2-Aminoacetamido)-N-[(1R)-3-phenyl-1-[(2-quinolyloxy)methyl]propyl]-2-pyrrolidinecarboxamide]: the “Levofloxacin MIC Against P. aerugiuosa PAM1001 in Presence of Efflux Pump Inhibitor (EPI), Minimum Inhibitory Concentration” value turned out to be 4 µg/mL (EPI Conc. 0 μg/mL); 4 µg/mL (EPI Conc. 0.625 μg/mL); 4 µg/mL (EPI Conc. 1.25 μg/mL); 4 µg/mL (EPI Conc. 2.5 μg/mL); 4 µg/mL (EPI Conc. 5 μg/ mL); 0.125 µg/mL (EPI Conc. 10 μg/mL). The “Levofloxacin MIC Against P. aerugiuosa PAM1001 in Presence of Efflux Pump Inhibitor (EPI), Minimum Inhibitory Concentration” value reads like this: (EPI Conc. 20 μg/mL) 0.06 µg/mL; (EPI Conc. 40 μg/mL) 0.03 µg/mL.

Turning to `C[C@@H](N)C(=O)N[C@@H]1CN[C@@H](C(=O)N(CCC(C)(C)C)CC(=O)Nc2cnc3ccccc3c2)C1` [Compound M47], the “Levofloxacin MIC Against P. aerugiuosa PAM1001 in Presence of Efflux Pump Inhibitor (EPI), Minimum Inhibitory Concentration” value was 4 µg/mL (EPI Conc. 0 μg/mL); 4 µg/mL (EPI Conc. 0.625 μg/mL); 4 µg/mL (EPI Conc. 1.25 μg/mL); 4 µg/mL (EPI Conc. 2.5 μg/mL); 4 µg/mL (EPI Conc. 5 μg/ mL); 4 µg/mL (EPI Conc. 10 μg/mL). For the same molecule, the “Levofloxacin MIC Against P. aerugiuosa PAM1001 in Presence of Efflux Pump Inhibitor (EPI), Minimum Inhibitory Concentration” value amounted to 2 µg/mL (EPI Conc. 20 μg/mL) and 0.03 µg/mL (EPI Conc. 40 μg/mL).

Turning to `N=C(N)N[C@H]1CN[C@H](C(=O)N[C@H](CCc2ccccc2)C(=O)Nc2cnc3ccccc3c2)C1` [Compound M95, (2S,4R)-4-(Guanadinyl)-N-[(1R)-3-phenyl-1-(3-quinolylcarbamoyl)propyl]-2-pyrrolidinecarboxamide], the “Levofloxacin MIC Against P. aerugiuosa PAM1001 in Presence of Efflux Pump Inhibitor (EPI), Minimum Inhibitory Concentration” value was determined as 4 µg/mL (EPI Conc. 0 μg/mL); 4 µg/mL (EPI Conc. 0.625 μg/mL); 4 µg/mL (EPI Conc. 1.25 μg/mL); 4 µg/mL (EPI Conc. 2.5 μg/mL); 4 µg/mL (EPI Conc. 5 μg/ mL); 4 µg/mL (EPI Conc. 10 μg/mL). The “Levofloxacin MIC Against P. aerugiuosa PAM1001 in Presence of Efflux Pump Inhibitor (EPI), Minimum Inhibitory Concentration” value reads like this: (EPI Conc. 20 μg/mL) 0.03 µg/mL; (EPI Conc. 40 μg/mL) 0.015 µg/mL.

On to `NCC(=O)N[C@H]1CN[C@H](c2nc3ccc(Cc4ccccc4)cc3[nH]2)C1` [Compound M73, (2S,4R)-4-(2-Aminoacetamido)-2-(5-benzyl-2-benzmidazolyl)pyrrolidine], for which the “Levofloxacin MIC Against P. aerugiuosa PAM1001 in Presence of Efflux Pump Inhibitor (EPI), Minimum Inhibitory Concentration” value is, setting by setting: (EPI Conc. 0 μg/mL) 4 µg/mL; (EPI Conc. 0.625 μg/mL) 4 µg/mL; (EPI Conc. 1.25 μg/mL) 4 µg/mL.

On to `CC(C)CC(NC(=O)C1CC(CN)CN1)C(=O)Nc1cnc2ccccc2c1` [Compound M13, (2R,4R)-4-(Aminomethyl)-N-[(1R)-3-methyl-1-quinolylcarbanioyl)bulyl]-2-pyrrolidinecarboxamide], for which the “Levofloxacin MIC Against P. aerugiuosa PAM1001 in Presence of Efflux Pump Inhibitor (EPI), Minimum Inhibitory Concentration” value by setting is: (EPI Conc. 0 μg/mL) 4 µg/mL; (EPI Conc. 0.625 μg/mL) 4 µg/mL; (EPI Conc. 1.25 μg/mL) 4 µg/mL; (EPI Conc. 2.5 μg/mL) 2 µg/mL; (EPI Conc. 5 μg/ mL) 1 µg/mL; (EPI Conc. 10 μg/mL) 0.06 µg/mL. For the same molecule, the “Levofloxacin MIC Against P. aerugiuosa PAM1001 in Presence of Efflux Pump Inhibitor (EPI), Minimum Inhibitory Concentration” value by setting is: (EPI Conc. 20 μg/mL) 0.06 µg/mL; (EPI Conc. 40 μg/mL) 0.06 µg/mL.

With `NCC(=O)N[C@H]1CN[C@@H](C(=O)N[C@H](Cc2ccc(F)cc2)C(=O)Nc2cnc3ccccc3c2)C1` [Compound M20, (2R,4R)-4-(2-Aminoacetamideo)-N-[(1R)-2-(4-fluorophenyl)-1-(3-quinolylcarbamoyl)ethyl]-2-pyrrolidinecarboxamide], the “Levofloxacin MIC Against P. aerugiuosa PAM1001 in Presence of Efflux Pump Inhibitor (EPI), Minimum Inhibitory Concentration” value is 4 µg/mL (EPI Conc. 0 μg/mL); 4 µg/mL (EPI Conc. 0.625 μg/mL); 4 µg/mL (EPI Conc. 1.25 μg/mL); 4 µg/mL (EPI Conc. 2.5 μg/mL); 2 µg/mL (EPI Conc. 5 μg/ mL); 0.50 µg/mL (EPI Conc. 10 μg/mL). The “Levofloxacin MIC Against P. aerugiuosa PAM1001 in Presence of Efflux Pump Inhibitor (EPI), Minimum Inhibitory Concentration” value is, setting by setting: (EPI Conc. 20 μg/mL) 0.125 µg/mL; (EPI Conc. 40 μg/mL) 0.015 µg/mL.

On to `NC[C@@H]1CN[C@@H](CO[C@H](CCc2ccccc2)C(=O)Nc2cnc3ccccc3c2)C1` [Compound M70, (2R,4R)-4-(Amiomethyl)-2-[((1R)-3-phenyl-1-(3-quiolylcarbamoyl)propyl)oxymethyl]pyrrolidie], for which the “Levofloxacin MIC Against P. aerugiuosa PAM1001 in Presence of Efflux Pump Inhibitor (EPI), Minimum Inhibitory Concentration” value reads like this: (EPI Conc. 0 μg/mL) 4 µg/mL; (EPI Conc. 0.625 μg/mL) 4 µg/mL; (EPI Conc. 1.25 μg/mL) 2 µg/mL; (EPI Conc. 2.5 μg/mL) 1 µg/mL; (EPI Conc. 5 μg/ mL) 1 µg/mL; (EPI Conc. 10 μg/mL) 0.125 µg/mL. In addition, the “Levofloxacin MIC Against P. aerugiuosa PAM1001 in Presence of Efflux Pump Inhibitor (EPI), Minimum Inhibitory Concentration” value reads like this: (EPI Conc. 20 μg/mL) 0.125 µg/mL; (EPI Conc. 40 μg/mL) 0.06 µg/mL.

For `NCC(=O)N[C@H]1CN[C@@H](C(=O)N(CCc2ccccc2)CC(=O)Nc2cnc3ccccc3c2)C1` [Compound M46], the “Levofloxacin MIC Against P. aerugiuosa PAM1001 in Presence of Efflux Pump Inhibitor (EPI), Minimum Inhibitory Concentration” value by setting is: (EPI Conc. 0 μg/mL) 4 µg/mL; (EPI Conc. 0.625 μg/mL) 4 µg/mL; (EPI Conc. 1.25 μg/mL) 4 µg/mL; (EPI Conc. 2.5 μg/mL) 4 µg/mL; (EPI Conc. 5 μg/ mL) 4 µg/mL; (EPI Conc. 10 μg/mL) 4 µg/mL. Further, the “Levofloxacin MIC Against P. aerugiuosa PAM1001 in Presence of Efflux Pump Inhibitor (EPI), Minimum Inhibitory Concentration” value by setting is: (EPI Conc. 20 μg/mL) 1 µg/mL; (EPI Conc. 40 μg/mL) 0.5 µg/mL.
